{
  "source": "paper PMC11269473",
  "about": "“Monoamine oxidase inhibition properties of 2,1-benzisoxazole derivatives” (Molecular Diversity, 2023)",
  "key": {"recombinant human MAO-A": {"target": "T1, recombinant human MAO-A (Homo sapiens, UniProt P21397)", "T1 construct": "purchased Sigma-Aldrich; host or cells: insect cells (microsomes)", "T1 sequence (P21397 1-527)": "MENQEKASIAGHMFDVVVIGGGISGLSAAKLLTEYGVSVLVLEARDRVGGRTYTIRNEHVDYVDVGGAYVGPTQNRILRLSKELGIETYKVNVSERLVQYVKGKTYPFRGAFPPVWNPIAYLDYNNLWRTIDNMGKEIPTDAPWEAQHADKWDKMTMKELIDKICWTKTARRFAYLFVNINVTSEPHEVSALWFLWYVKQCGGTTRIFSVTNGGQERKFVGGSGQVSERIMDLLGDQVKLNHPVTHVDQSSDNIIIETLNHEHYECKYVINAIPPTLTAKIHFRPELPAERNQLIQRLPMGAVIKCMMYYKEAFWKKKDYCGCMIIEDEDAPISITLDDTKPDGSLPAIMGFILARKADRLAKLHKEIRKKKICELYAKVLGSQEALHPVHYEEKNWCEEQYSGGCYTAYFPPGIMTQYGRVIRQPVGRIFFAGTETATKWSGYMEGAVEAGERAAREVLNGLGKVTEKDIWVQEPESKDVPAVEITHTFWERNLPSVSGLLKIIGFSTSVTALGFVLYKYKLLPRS", "assay": "MAO-A inhibition, IC50 determination with kynuramine as substrate (fluorescence of 4-hydroxyquinoline)", "type": "biochemical", "settings": "50 µM kynuramine, mean ± SD of triplicate, NI = no inhibition observed at 100 µM", "description": "(§1) The MAO inhibition properties of the 2,1-benzisoxazole derivatives were investigated using the commercially available recombinant human MAO-A and MAO-B enzymes with kynuramine serving as substrate. MAO oxidizes kynuramine to yield 4-hydroxyquinoline, which was measured by fluorescence spectrophotometry.\n(§2) For the MAO inhibition studies, a Varian Cary Eclipse fluorescence spectrophotometer was employed. Microsomes from insect cells containing recombinant human MAO-A and MAO-B (5 mg protein/mL) and kynuramine dihydrobromide were obtained from Sigma-Aldrich.\n(§3) IC50 values for the inhibition of MAO were measured as described previously. Microsomes from insect cells containing recombinant human MAO-A and MAO-B (5 mg protein/mL) served as enzyme sources (Sigma-Aldrich) while kynuramine was used as non-specific MAO substrate. The enzyme reactions (200 µL reactions prepared in 96-well microtiter plates) contained phosphate buffer (100 mM, pH 7.4), 50 µM kynuramine and the test inhibitors at concentrations of 0.003–100 µM. […] The reactions were initiated with addition of MAO-A (0.0075 mg protein/mL) or MAO-B (0.015 mg protein/mL) and after 20 min of incubation at 37 °C, the reactions were terminated by the addition of 80 µL NaOH (2 N). The concentration of 4-hydroxyquinoline, the product of kynuramine oxidation by MAO, was measured by fluorescence spectrophotometry (λex = 310 nm; λem = 400 nm). IC50 values were estimated from sigmoidal plots of enzyme catalytic rate versus the inhibitor concentration (log[I]) which were constructed with the Prism software package (GraphPad). IC50 values were estimated in triplicate determinations from these plots and are expressed as mean ± standard deviation (SD)."}, "recombinant human MAO-B [1]": {"target": "T2, recombinant human MAO-B (Homo sapiens, UniProt P27338)", "T2 construct": "purchased Sigma-Aldrich; host or cells: insect cells (microsomes)", "T2 sequence (P27338 1-520)": "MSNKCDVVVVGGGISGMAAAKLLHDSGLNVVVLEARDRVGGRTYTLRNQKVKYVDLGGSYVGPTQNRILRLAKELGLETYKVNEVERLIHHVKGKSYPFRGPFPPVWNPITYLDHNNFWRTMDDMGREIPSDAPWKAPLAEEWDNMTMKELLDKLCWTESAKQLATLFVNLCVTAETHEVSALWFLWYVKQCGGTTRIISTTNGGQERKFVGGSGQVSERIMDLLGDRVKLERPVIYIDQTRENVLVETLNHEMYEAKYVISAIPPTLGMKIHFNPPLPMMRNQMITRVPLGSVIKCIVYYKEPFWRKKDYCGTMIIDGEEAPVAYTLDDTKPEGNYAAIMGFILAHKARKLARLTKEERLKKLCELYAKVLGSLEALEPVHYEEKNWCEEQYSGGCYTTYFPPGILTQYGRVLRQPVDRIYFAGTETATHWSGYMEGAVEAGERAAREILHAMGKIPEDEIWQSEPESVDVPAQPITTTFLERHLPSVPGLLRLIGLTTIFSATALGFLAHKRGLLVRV", "assay": "MAO-B inhibition, IC50 determination with kynuramine as substrate (fluorescence of 4-hydroxyquinoline)", "type": "biochemical", "description": "as §1, §2\nas §3, with “The” for “The reactions were initiated with addition of MAO-A (0.0075 mg protein/mL) or MAO-B (0.015 mg protein/mL) and after 20 min of incubation at 37 °C, the reactions were terminated by the addition of 80 µL NaOH (2 N). The”"}, "recombinant human MAO-B [2]": {"target": "T2, recombinant human MAO-B", "assay": "Lineweaver–Burk plots / mode of MAO-B inhibition and Ki", "type": "biochemical", "description": "These two compounds represent potent MAO inhibitors among the study compounds. […] Each line of the Lineweaver–Burk plots was constructed with the kynuramine concentration ranging from 15 to 250 μM.\nThe insets are replots of the slopes of the Lineweaver–Burk plots versus inhibitor concentration. The Ki value equals the negative of the x-axis intercept when y = 0\nIC50 values for the inhibition of MAO were measured as described previously. Microsomes from insect cells containing recombinant human MAO-A and MAO-B (5 mg protein/mL) served as enzyme sources (Sigma-Aldrich) while kynuramine was used as non-specific MAO substrate. The enzyme reactions (200 µL reactions prepared in 96-well microtiter plates) contained phosphate buffer (100 mM, pH 7.4), 50 µM kynuramine and the test inhibitors at concentrations of 0.003–100 µM. Stock solutions of the test inhibitors were dissolved in DMSO and added to the enzyme reactions to give a final DMSO concentration of 4% (v/v). The reactions were initiated with addition of MAO-A (0.0075 mg protein/mL) or MAO-B (0.015 mg protein/mL) and after 20 min of incubation at 37 °C, the reactions were terminated by the addition of 80 µL NaOH (2 N). The concentration of 4-hydroxyquinoline, the product of kynuramine oxidation by MAO, was measured by fluorescence spectrophotometry (λex = 310 nm; λem = 400 nm). IC50 values were estimated from sigmoidal plots of enzyme catalytic rate versus the inhibitor concentration (log[I]) which were constructed with the Prism software package (GraphPad). IC50 values were estimated in triplicate determinations from these plots and are expressed as mean ± standard deviation (SD).\nFor each line, the concentration of kynuramine ranged from 15–250 µM."}, "human MAO-B": {"target": "human MAO-B", "design": "method as in PMID 21175212", "settings": "competitive inhibitor; cited from earlier work"}},
  "note": "Like-named read-outs stand apart in the source and are kept apart here.",
  "data": [
    {"compound": "N#Cc1ccc(-c2onc3c(Cl)cc(Cl)cc23)cc1", "note": "[Compound 7a, 4-(5,7-Dichlorobenzo[c]isoxazol-3-yl)benzonitrile]", "values": [
      {"measurement": "IC50", "setting": "recombinant human MAO-A", "result": "19 ± 1.2", "unit": "µM"},
      {"measurement": "SI (selectivity index)", "setting": "recombinant human MAO-B [1]; SI = IC50(MAO-A)/IC50(MAO-B)", "result": 1138},
      {"measurement": "IC50", "setting": "recombinant human MAO-B [1]; recombinant human MAO-B, 50 µM kynuramine, mean ± SD of triplicate, NI = no inhibition observed at 100 µM", "result": "0.017 ± 0.0045", "unit": "µM"},
      {"measurement": "mode of MAO-B inhibition", "setting": "recombinant human MAO-B [2]; Lineweaver–Burk lines intersect on the y-axis", "result": "competitive"},
      {"measurement": "Ki", "setting": "recombinant human MAO-B [2]; global (shared) fitting of the inhibition data, read-out: Ki, MAO-B, global (shared) fitting to the Michaelis–Menten equation", "result": "10 ± 1.5", "unit": "nM"},
      {"measurement": "Ki", "setting": "recombinant human MAO-B [2]; replot of slopes versus inhibitor concentration, Ki = −x when y = 0, kynuramine 15–250 µM, read-out: Ki, MAO-B, from replot of slopes of Lineweaver–Burk plots", "result": 6.2, "unit": "nM"},
      {"measurement": "melting point", "result": "240 to 241", "unit": "°C"}
    ]},
    {"compound": "NS(=O)(=O)Cc1noc2ccccc12", "note": "[Zonisamide, zonisamide]", "values": [
      {"measurement": "Ki", "setting": "human MAO-B", "result": 3100, "unit": "nM"}
    ]}
  ]
}
